Measured values as given in patent US9067871B2, “Aminotetraline derivatives, pharmaceutical compositions containing them, and their use in therapy” (ABBVIE DEUTSCHLAND GMBH & CO KG, priority 2009, dated 2015).
Structures can show the parent of a compound that is named as a salt.

Molecular target: human GlyT1c transporter (Homo sapiens (Human), UniProt P48067)
Assay: Radioligand binding assay using recombinant CHO cell membranes expressing human GlyT1
Settings: human GlyT1c-expressing CHO cell membranes; hydrochloride; read-out: radioligand binding Kiapp
Text: 2. Radioligand binding assays using recombinant CHO cell membranes expressing human GlyT1: […]

Chain of human GlyT1c transporter (P48067 whole entry): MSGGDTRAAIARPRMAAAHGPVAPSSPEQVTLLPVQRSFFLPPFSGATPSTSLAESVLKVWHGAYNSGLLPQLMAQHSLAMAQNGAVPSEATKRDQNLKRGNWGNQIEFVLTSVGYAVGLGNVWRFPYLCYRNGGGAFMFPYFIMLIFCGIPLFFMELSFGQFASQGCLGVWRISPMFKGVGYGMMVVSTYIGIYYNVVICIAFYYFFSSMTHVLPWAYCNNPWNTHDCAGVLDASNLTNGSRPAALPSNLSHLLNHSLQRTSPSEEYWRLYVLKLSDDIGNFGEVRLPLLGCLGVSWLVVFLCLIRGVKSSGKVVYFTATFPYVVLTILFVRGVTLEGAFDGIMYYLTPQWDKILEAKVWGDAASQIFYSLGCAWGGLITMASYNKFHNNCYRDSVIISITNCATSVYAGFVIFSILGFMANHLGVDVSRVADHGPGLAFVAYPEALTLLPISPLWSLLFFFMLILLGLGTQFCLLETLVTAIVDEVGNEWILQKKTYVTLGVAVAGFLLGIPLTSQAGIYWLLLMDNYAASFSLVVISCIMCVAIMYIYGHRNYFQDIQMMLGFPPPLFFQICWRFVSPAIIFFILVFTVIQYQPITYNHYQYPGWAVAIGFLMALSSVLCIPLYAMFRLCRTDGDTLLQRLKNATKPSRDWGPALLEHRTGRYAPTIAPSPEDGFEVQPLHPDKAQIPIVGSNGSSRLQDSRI

Ki [nM]	SMILES
≤ 100	Cn1cnc(S(=O)(=O)NCCOc2ccc3c(c2)C(Cc2ccccc2)C(N2CCCC2)CC3)c1 (single isomer, unassigned; (+)) [Example 118, (+)-N-(2-(8-benzyl-7-(pyrrolidin-1-yl)-5,6,7,8-tetrahydronaphthalen-2-yloxy)ethyl)-1-methyl-1H-imidazole-4-sulfonamide hydrochloride]
≤ 10	Cn1cnc(S(=O)(=O)NCCOc2ccc3c(c2)C(Cc2ccccc2)C(N2CCCC2)CC3)c1 (single isomer, unassigned; (-)) [Example 117, (−)-N-(2-(8-benzyl-7-(pyrrolidin-1-yl)-5,6,7,8-tetrahydronaphthalen-2-yloxy)ethyl)-1-methyl-1H-imidazole-4-sulfonamide hydrochloride]

Same assay, conditions: human GlyT1c-expressing CHO cell membranes; read-out: radioligand binding Kiapp

Ki [nM]	SMILES
≤ 10	O=S(=O)(CC1CC1)NCCOc1ccc2c(c1)C(Cc1ccccc1)C(N1CCC1)CC2 (single isomer, unassigned; (-)) [Example 143, (−)-N-(2-(7-(azetidin-1-yl)-8-benzyl-5,6,7,8-tetrahydronaphthalen-2-yloxy)ethyl)-1-cyclopropylmethanesulfonamide]
≤ 10	CNC1CCc2ccc(CNS(=O)(=O)C3CCC3)cc2C1Cc1ccccc1 (single isomer, unassigned; enantiomer 1) [Example 193, Enantiomer 1 of N-{[8-benzyl-7-(methylamino)-5,6,7,8-tetrahydronaphthalen-2-yl]methyl}cyclobutanesulfonamide hydrochloride]
≤ 10	Cn1cnc(S(=O)(=O)NCCOc2ccc3c(c2)C(Cc2ccccc2)C(N)CC3)c1 (single isomer, unassigned; enantiomer 1) [Example 238, Enantiomer 1 of N-(2-{[7-amino-8-benzyl-5,6,7,8-tetrahydronaphthalen-2-yl]oxy}ethyl)-1-methyl-1H-imidazole-4-sulfonamide hydrochloride]
≤ 10	CNC1CCc2ccc(OCCNS(=O)(=O)CC3CC3)cc2C1Cc1cccc(F)c1 (single isomer, unassigned; enantiomer 1) [Example 240, Enantiomer 1 of 1-cyclopropyl-N-(2-{[8-(3-fluorobenzyl)-7-(methylamino)-5,6,7,8-tetrahydronaphthalen-2-yl]oxy}ethyl)methanesulfonamide hydrochloride]
≤ 100	CNC1CCc2ccc(OCCNS(=O)(=O)c3ccn(C)c3)cc2C1Cc1cc(F)cc(F)c1 (single isomer, unassigned; enantiomer 1) [Example 241, Enantiomer 1 of N-(2-{[8-(3,5-difluorobenzyl)-7-(methylamino)-5,6,7,8-tetrahydronaphthalen-2-yl]oxy}ethyl)-1-methyl-1H-pyrrole-3-sulfonamide hydrochloride]
≤ 1000	CNC1CCc2ccc(OCCNS(=O)(=O)CC3CC3)cc2C1Cc1cc(F)cc(F)c1 (single isomer, unassigned; enantiomer 1) [Example 245, Enantiomer 1 of 1-cyclopropyl-N-(2-{[8-(3,5-difluorobenzyl)-7-(methylamino)-5,6,7,8-tetrahydronaphthalen-2-yl]oxy}ethyl)methanesulfonamide hydrochloride]
≤ 10	Cn1cnc(S(=O)(=O)NCc2ccc3c(c2)C(Cc2ccccc2)C(N2CCC2)CC3)c1 (single isomer, unassigned; enantiomer 1) [Example 252, Enantiomer 1 of N-{[7-(azetidin-1-yl)-8-benzyl-5,6,7,8-tetrahydronaphthalen-2-yl]methyl}-1-methyl-1H-imidazole-4-sulfonamide]

Same assay, conditions: human GlyT1c-expressing CHO cell membranes; succinate; read-out: radioligand binding Kiapp

Ki [nM]	SMILES
≤ 1000	O=S(=O)(CC1CC1)NCCOc1ccc2c(c1)C(Cc1ccccc1)C(N1CCC1)CC2 (single isomer, unassigned; (+)) [Example 144, (+)-N-(2-(7-(azetidin-1-yl)-8-benzyl-5,6,7,8-tetrahydronaphthalen-2-yloxy)ethyl)-1-cyclopropylmethanesulfonamide succinate]
